The source made the active and inactive calls. How the calls were made is not given here.
Assay: non-covalent RecA intein splicing inhibitors, dose response, biochemical, cell-free, fluorescence, secondary screen (AID 449750)

| SMILES | AC50 |
| --- | --- |
| O=C(Nc1ccccc1)c1nnsc1S(=O)(=O)c1ccc(Cl)cc1 | > 38 µM (inactive) |
| O=S(=O)(c1ccccc1)c1ncc(C(F)(F)F)cc1Cl | > 38 µM (inactive) |
| CS(=O)(=O)c1nc(-c2ccccc2)cc(C(F)(F)F)n1 | > 38 µM (inactive) |
| NNc1n[nH]c(=S)n1N | 32.3 µM |
| COc1cc2c(cc1OC)-c1c(OC)c(OC)cc3c1[C@H](C2)N(C)CC3 | 27 µM |
| COc1cccc(CN2CCN(Cc3ccc(C#CC(C)(C)O)s3)CC2CCO)c1 (stereo unspecified) | > 38 µM (inactive) |
| O=C(O)CSc1c2c(nc3cc(C(=O)Nc4cccc(C(F)(F)F)c4)ccc13)CCCC2 | 21.7 µM |
| COc1cc(/C=C2/SC(=S)NC2=O)ccc1OS(=O)(=O)c1ccc(C)cc1 | 5.83 µM |
| CCCCCCOC(=O)c1ccc(OC(=O)c2cccnc2)cc1 | > 38 µM (inactive) |
| COc1cccc(NC(=O)c2nc(S(C)(=O)=O)ncc2Cl)c1 | > 38 µM (inactive) |
| Nc1nn2c(-c3ccccc3)cc(=O)[nH]c2c1N=Nc1ccc(O)cc1 | > 38 µM (inactive) |
| COC(=O)c1nc(NC(=O)c2ccc(C(C)(C)C)cc2)n[nH]1 | > 38 µM (inactive) |
| Clc1ncnc2scc(C3COc4ccccc4O3)c12 (stereo unspecified) | 7.28 µM |
| CCCc1c(-c2ccc(O)cc2)nn(-c2ccc(O)cc2)c1-c1ccc(O)cc1 | 4.37 µM |
| O=C(CSCc1ccc([N+](=O)[O-])cc1)N/N=C/c1cccnc1 | > 38 µM (inactive) |
| O=C(c1ccc(Cl)cc1)n1cnc2ccccc21 | > 38 µM (inactive) |
| CNCC(O)CN(c1ccccc1)c1ccccc1 (stereo unspecified) | 10.5 µM |
| COc1nc(N/N=C/c2ccc(-c3ccccc3[N+](=O)[O-])o2)nc(N2CCOCC2)n1 | 23.2 µM |
| O=C(Oc1ccccc1N1C(=O)CCC1=O)c1ccco1 | > 38 µM (inactive) |
| CCc1ccc2c(c1)C(NC(C)=O)C(=O)N2CCN1CCOCC1 (stereo unspecified) | 37 µM |
| CCC(CC)C(=O)NCc1ccc2c(c1)cc(C)n2C | > 38 µM (inactive) |

| SMILES | AC50 |
| --- | --- |
| CC1=NN(c2ccccc2)C(=O)/C1=C/c1c(O)n(-c2ccc(F)c(Cl)c2)[nH]c1=O | 10.3 µM |
| CC1=NN(c2ccccc2)C(=O)C1 | 3.24 µM |
| Cc1ccc(C(=O)C(OC(=O)CN2C(=O)c3ccccc3C2=O)c2ccccc2)cc1C (stereo unspecified) | > 38 µM (inactive) |
| O=C(CCl)N(C/C=C/c1ccccc1)c1ccc2c(c1)OCCO2 | 1.12 µM |
| NC(=O)c1c(-c2cccs2)csc1N | > 38 µM (inactive) |
| COc1ccc(N(C(=O)c2ccco2)S(=O)(=O)c2cccs2)cc1 | > 38 µM (inactive) |
| Cc1ccc(C(=O)C2C(c3ccc(-c4ccccc4[N+](=O)[O-])o3)NC(=O)NC2(O)C(F)(F)F)cc1 (stereo unspecified) | 19.9 µM |
| Cc1ccc(NC2=C(NC(=O)c3ccccc3)C(=O)c3ccccc3C2=O)cc1Cl | 7.45 µM |
| Cc1cc(-c2[nH]nc3c2C(c2ccc(Cl)cc2)C(C#N)=C(N)O3)c(C)s1 (stereo unspecified) | 15.2 µM |
| CC1CC(=O)c2c(cc3c(-c4c(O)cc(O)c5c(O)c6c(cc45)OC(C)CC6=O)c(O)cc(O)c3c2O)O1 (stereo unspecified) | 2.71 µM |
| CC(=O)n1cc(N(C(=O)CCl)c2ccccc2)c2ccccc21 | 3.56 µM |
| N#Cc1cc([N+](=O)[O-])ccc1NC(=O)COC(=O)CCC1CCCCC1 | 15.1 µM |
| COc1ccc(S(=O)(=O)Nc2cc(SCC(=O)O)c(O)c3ccccc23)cc1 | 2.14 µM |
| O=C(O)CC1S/C(=N/N=C/c2ccc(-c3ccc(Cl)cc3[N+](=O)[O-])o2)NC1=O (stereo unspecified) | 4.67 µM |
| O=C(O)/C=C/C(=O)Nc1ccc(C2(c3ccc(NC(=O)/C=C/C(=O)O)cc3)c3ccccc3-c3ccccc32)cc1 | 4.61 µM |
| CN1CCc2nc(SCC(=O)Nc3ccc(OC(F)(F)F)cc3)c(C#N)c(-c3cccs3)c2C1 | 23.7 µM |
| CC(C)(C)OC(=O)NCCc1nnc(S(=O)(=O)Cc2ccc(Cl)cc2Cl)o1 | > 38 µM (inactive) |
| CCc1nnc(NS(=O)(=O)c2ccc(NC(=S)NC(=O)/C=C/c3ccc(C(C)C)cc3)cc2)s1 | 5.98 µM |
| O=C1C=C(NCCN2CCOCC2)C(=O)c2cnccc21 | 1.54 µM |
| O=c1oc2cc(Oc3c([N+](=O)[O-])cc(C(F)(F)F)cc3[N+](=O)[O-])ccc2c2c1CCCC2 | > 38 µM (inactive) |
